Read-outs that look alike come from different tables or passages of the source. Some results are limits rather than exact numbers.

The test system of test [1] is REL-A (p65) nuclear translocation in HeLa cells. Put plainly: REL-A nuclear translocation assay (classical NF-kB signaling), high content imaging. As to conditions: Homo sapiens, compounds 4.5 hours, then 10 ng/mL TNF-α for 30 minutes, read-out: REL-A HeLa Transloc Assay (IC50). In kind it is cell-based. On the procedure:
(§1) (2) A second set of cell assay are used to define the selectivity of NIK inhibitors toward inhibition of classical vs. non-classical NF-kB signaling and rely on quantification of the nuclear translocation of p52 (NF-kB2) and REL-A (p65) using high content cellular imaging. For the p52 (non-classical NF-kB signaling) nuclear translocation assay, HeLa cells are treated with different concentrations of compounds (0.2% DMSO final) in medium containing 10% fetal bovine serum and then stimulated with 100 ng/mL, of an anti-lymphotoxin beta receptor antibody (R&D Systems) for 5 hours. In the REL-A nuclear translocation assay, HeLa cells are incubated with compounds (0.2% DMSO final) for 4.5 hours in medium containing 10% fetal bovine serum before stimulating them with 10 ng/mL tumor necrosis factor (TNF)-α (R&D Systems) for 30 minutes. Cells are fixed with 4% paraformaldehyde, permeabilized by adding 0.1% Triton X-100 in phosphate buffered saline, and then are incubated with either 2 ug/mL anti-p52 antibody (Millipore) or 400 ng/mL anti-REL-A (p65) antibody (Santa Cruz Biotechnology). Finally, the cells are incubated with an Alexa488-labeled secondary antibody (Invitrogen) and DRAQ5 DNA stain (Biostatus). Imaging is carried out using an Opera reader (Perkin Elmer) and data are analyzed with the aid of Acapella software (Perkin Elmer). The p52 or REL-A translocation into the nucleus is quantified by the ratio of the nuclear to cytoplasmic signal intensity. […] The compounds in listed in Table 1 have the corresponding inhibitory value (IC50 in micromolar) for NIK p52 Translocation Assay as set forth in Table 2.
The compounds in listed in Table 1 has the corresponding inhibitory value (IC50 in micromolar) for NIK RelA Translocation Assay as set forth in Table 2.

Test [2] relates to p52 (NF-kB2) nuclear translocation in HeLa cells. Briefly: p52 nuclear translocation assay (non-classical NF-kB signaling), high content imaging. Particulars: 100 ng/mL anti-lymphotoxin beta receptor antibody for 5 hours, read-out: p52 HeLa Transloc Assay (IC50). It counts as cell-based. On the procedure: as §1

In the case of `Cc1nc([C@](C)(O)C#Cc2cc3c(cc2F)OC[C@@H](N(C)C)c2sc(C(N)=O)nc2-3)no1` (racemic) [Example 256], the IC50 in test [1] (HeLa) was above 20 µM; in test [2] it was 2 µM; in test [2] (Homo sapiens, HeLa, 5 h), 2.9 µM.
`NC(=O)c1nc2n(c1C(O)c1ccn[nH]1)C1CC(C1)c1cc(F)c(C#CC3(O)CCCC3)cc1-2` (racemic) [Example 310]: the IC50 was above 20 µM in test [1] (HeLa) and 2.6 µM in test [2] (Homo sapiens, HeLa, 5 h).
With `CNC(=O)c1c(C(N)=O)nc2n1CCOc1ccc(C#C[C@]3(O)CCN(C)C3=O)cc1-2` (racemic) [Example 419, (±)-9-fluoro-10-(3-hydroxy-3-methyl-but-1-ynyl)-3-[(3-hydroxypyrrolidin-1-yl)methyl]-5,6,7,12-tetrahydro-5,7-methanobenzo[c]imidazo[1,2-a]azepine-2-carboxamide], the 50% inhibitory concentration (IC50) in test [1] (HeLa) was above 20 µM; in test [2] (Homo sapiens, HeLa, 5 h), 0.317 µM.
In the case of `CN1CC[C@@](O)(C#Cc2ccc3c(c2)-n2nc(C(N)=O)c(C(F)(F)F)c2CCO3)C1=O` (racemic) [Example 500], the IC50 in test [1] (HeLa) was above 20 µM; in test [2] (Homo sapiens, HeLa, 5 h), 0.381 µM.
With `Cc1cc([C@](C)(O)C#Cc2cc3c(cc2F)OCCc2sc(C(N)=O)nc2-3)no1` [Example 39], the IC50 in test [1] (HeLa) worked out at 20 µM; in test [2] (Homo sapiens, HeLa, 5 h), 0.038 µM.
For `NC(=O)c1nc2c(s1)CCOc1cc(F)c(C#CC3(O)CCCC3)cc1-2` [Example 40, 8-fluoro-9-(1-hydroxy-cyclopentyl-ethynyl)-4,5-dihydro-6-oxa-3-thia-1-aza-benzo[e]azulene-2-carboxylic acid amide], the IC50 in test [1] turned out to be 20 µM; in test [2] (Homo sapiens) it was 0.068 µM.
Turning to `CC(O)(C#Cc1cc2c(cc1F)OCCc1sc(C(N)=O)nc1-2)c1ccccn1` (stereo not drawn) [Example 93], the IC50 is 20 µM in test [1] (HeLa) and 0.344 µM in test [2] (Homo sapiens, HeLa, 5 h).
Turning to `Cc1cc([C@](C)(O)C#Cc2cc3c(cc2F)OCCn2c-3nc(C(N)=O)c2C(=O)NCC#N)no1` [Example 107], the IC50 in test [1] worked out at 20 µM; in test [2] (Homo sapiens), 0.0831 µM.
For the compound `CC(C)(O)C#Cc1cc2c(cc1F)C1CC(C1)n1c-2nc(C(N)=O)c1C1CC1` [Example 195, 3-cyclopropyl-9-fluoro-10-(3-hydroxy-3-methyl-but-1-ynyl)-5,6,7,12-tetrahydro-5,7-methanobenzo[c]imidazo[1,2-a]azepine-2-carboxamide], the IC50 was above 20 µM in test [1] (HeLa) and 2.4 µM in test [2] (Homo sapiens, HeLa, 5 h).
Turning to `CC(C)(O)C#Cc1cc2c(cc1F)C1CC(C1)n1c-2nc(C(N)=O)c1C(C)(C)O` [Example 248, 9-fluoro-10-(3-hydroxy-3-methyl-but-1-ynyl)-3-(1-hydroxy-1-methyl-ethyl)-5,6,7,12-tetrahydro-5,7-methanobenzo[c]imi-dazo[1,2-a]azepine-2-carboxamide], the IC50 in test [1] is above 20 µM; in test [2] (Homo sapiens) it was 1.4 µM.
In the case of `Cc1nc([C@](C)(O)C#Cc2cc3c(cc2F)OC[C@H](N(C)C)c2sc(C(N)=O)nc2-3)no1` [Example 258, (S)-4-(dimethylamino)-8-fluoro-9-[3-(R)-hydroxy-3-(5-methyl-1,2,4-oxadiazol-3-yl)but-1-ynyl]-4,5-dihydro-[1]benzoxe-pino[5,4-d]thiazole-2-carboxamide], the IC50 in test [1] (HeLa) was above 20 µM; in test [2], 2 µM; in test [2] (Homo sapiens, HeLa, 5 h) it was 2.9 µM.
Take `Cc1nc([C@](C)(O)C#Cc2ccc3c(c2)-c2nc(C(N)=O)c(Cc4ccnn4C)n2C2CC3C2)no1` [Example 260, 10-[(3R)-3-hydroxy-3-(5-methyl-1,2,4-oxadiazol-3-yl)but-1-ynyl]-3-[(2-methyl-pyrazol-3-yl)methyl]-5,6,7,12-tetrahydro-5,7-methanobenzo[c]imidazo[1,2-a]aze-pine-2-carboxamide]: the IC50 is above 20 µM in test [1] (HeLa) and 4.8 µM in test [2] (Homo sapiens, HeLa, 5 h).
The corresponding values for `CN1CC[C@@](O)(C#Cc2ccc3c(c2)-c2nc(C(N)=O)sc2CCO3)C1=O` [Example 276] are 20 µM and 0.0946 µM.
Regarding `CC(C)(O)Cn1cc(-c2c(C(N)=O)nc3n2C2CC(C2)c2ccc(C#CC4(O)CCCC4)cc2-3)cn1` [Example 289], the IC50 was above 20 µM in test [1] (HeLa) and 2.7 µM in test [2] (Homo sapiens, HeLa, 5 h).

One may read the IC50 as the point on the concentration scale where inhibition reaches its midpoint.
